PMC12014616, “HPLC-UV method development and validation for anticancer drug sorafenib and the co-prescribed drug dexamethasone: application to pharmacokinetic evaluation of sorafenib nanoformulations” (Frontiers in Pharmacology, 2025)

Experiment: Stability of sorafenib-spiked plasma samples at different storage conditions
Format: physicochemical
Protocol: The plasma was separated from the blood by centrifugation at 8,000 rpm for 10 min at […]. The plasma (200 µL) was spiked with sorafenib, dexamethasone, and IS, the protein was precipitated with acetonitrile, and the extraction of the analytes was carried out with ACN, MeOH, and DCM. The following plan was applied to obtain the sample (Figure 2), and a sample (20 µL) was applied for analysis.
Linearity was confirmed through least squares regression, while sensitivity was measured on the basis of the S/N ratio of HPLC software. The S/N ratios are 3 and 10 for LOD and LOQ, respectively. Similar robustness was tested through planned changes in parameters while stability studies were performed at different storage conditions (‒20°C, 4°C, and 25°C) for a month using Equation 3. % Stability=St/So X 100, (3) where St indicates stability at time t, and S0 indicates stability at time 0.

% Recovery (Mean ± SD) (4°C, 6 hours, 250 ng/mL): 98.13 ± 0.19; 0.19%
% Recovery (Mean ± SD) (4°C, 6 hours, 500 ng/mL): 98.29 ± 0.65; 0.66%
% Recovery (Mean ± SD) (4°C, 6 hours, 1,000 ng/mL): 98.91 ± 0.91; 0.92%
% Recovery (Mean ± SD) (4°C, 24 hours, 250 ng/mL): 98.11 ± 0.38; 0.77%
% Recovery (Mean ± SD) (4°C, 24 hours, 500 ng/mL): 98.30 ± 0.67; 0.68%
% Recovery (Mean ± SD) (4°C, 24 hours, 1,000 ng/mL): 98.05 ± 0.68; 0.69%
% Recovery (Mean ± SD) (4°C, 72 hours, 250 ng/mL): 97.36 ± 0.85; 0.87%
% Recovery (Mean ± SD) (4°C, 72 hours, 500 ng/mL): 96.99 ± 0.32; 0.33%
% Recovery (Mean ± SD) (4°C, 72 hours, 1,000 ng/mL): 96.93 ± 0.48; 0.50%
% Recovery (Mean ± SD) (25°C, 0 hours, 250 ng/mL): 98.15 ± 0.44; 0.45%
% Recovery (Mean ± SD) (25°C, 0 hours, 500 ng/mL): 98.25 ± 0.55; 0.56%
% Recovery (Mean ± SD) (25°C, 0 hours, 1,000 ng/mL): 98.55 ± 0.19; 0.19%
% Recovery (Mean ± SD) (25°C, 6 hours, 250 ng/mL): 97.45 ± 0.34; 0.35%
% Recovery (Mean ± SD) (25°C, 6 hours, 500 ng/mL): 97.39 ± 0.12; 0.12%
% Recovery (Mean ± SD) (25°C, 6 hours, 1,000 ng/mL): 98.05 ± 0.15; 0.15%
% Recovery (Mean ± SD) (25°C, 24 hours, 250 ng/mL): 95.51 ± 0.53; 0.55%
% Recovery (Mean ± SD) (25°C, 24 hours, 500 ng/mL): 96.05 ± 0.41; 0.43%
% Recovery (Mean ± SD) (25°C, 24 hours, 1,000 ng/mL): 97.55 ± 0.26; 0.27%
% Recovery (Mean ± SD) (25°C, 72 hours, 250 ng/mL): 85.90 ± 0.50; 0.58%
% Recovery (Mean ± SD) (25°C, 72 hours, 500 ng/mL): 84.95 ± 0.34; 0.40%
% Recovery (Mean ± SD) (25°C, 72 hours, 1,000 ng/mL): 88.25 ± 0.74; 0.84%
% Recovery (Mean ± SD) (freeze and thaw 3x, 250 ng/mL): 96.41 ± 0.17; 0.18%
% Recovery (Mean ± SD) (freeze and thaw 3x, 500 ng/mL): 97.05 ± 0.22; 0.23%
% Recovery (Mean ± SD) (freeze and thaw 3x, 1,000 ng/mL): 98.00 ± 0.87; 0.89%
Compound: CNC(=O)c1cc(Oc2ccc(NC(=O)Nc3ccc(Cl)c(C(F)(F)F)c3)cc2)ccn1 [sorafenib, Sorafenib]
